These results are taken from patent US8697692B2, “Pyrrolo [3,2-c] pyridine-4-one 2-indolinone protein kinase inhibitors” (Shanghai Hengrui Pharmaceutical Co., Ltd., priority 2006, dated 2014).

Like-named read-outs stand apart in the source and are kept apart here.

For the assay, the system named is A431 cell. As to the kind of experiment: Cell Proliferation Inhibition EGFR Assay (SRB method). It counts as cell-based, homo sapient. As to conditions: Homo sapiens, read-out: IC50 (A431). An excerpt: The following in vitro assay may be used to determine the level of activity and effect of different compounds of the present invention on the proliferation inhibition (cell toxic) of […] growth factor receptor (EGFR) high expressing homo […] cancer cell-A431 cell. The cellular assay described here measure the compounds of their anti-angiogenesis and proliferation inhibition activity and effect through EGFR on the cancer cells in vitro. The effect and activity is represented by the IC50 value that kills the cancer cell. […] The homo […] highly express EGFR are chosen and seeded to 96-well cell culture plate at a suitable concentration (exp 5000 cells/ml medium). The cells then are cultured in carbon dioxide (CO2) incubator till when they confluence to about 85%. Then, the cell culture medium is replaced by fresh one with tested compounds added in it at serial concentrations (general 6 to 7 concentrations). Then the cells are put back to the culture and cultured for continuous 72 hours. 72 hours later, the cell exposed to compounds and control cell are assayed for their proliferation using Sulforhodamine B (SRB) method. Compounds IC50 on tested cells are calculated by the data of inhibition rates of serial concentrations of the tested compounds. • a. Dimethyl sulfoxide (Sinophma chemical reagent company, catalog No. T20050806) • b. A431 cells (Purchased from Institute of biochemistry and cell biology) • c. Falcon 100 mm cell culture plates (Baton Dickison Labware, Baton Dickison and company, • Catalog No. 18677) • d. coming 96-well culture cluster (Corning Incorporated, Catalog No. 3599) • e. Fisher Pipette (Fisher scientific, Catalog No. 03-692-164) • f. DMEM/F12 cell medium (Gibco, Catalog No. 12400-024) • g. Fetal bovine serum, origin from Australia (Gibco, Catalog No. 10099-141) • h. […] Sulforhodamine B (Sigma, Catalog No. 3520-42-1) • k. Acetic Acid (Sinophma chemical reagent company, Catalog No. T20060508) • l. Trichloroacetic Acid (Sinophma chemical reagent company, Catalog No. T20060305) • m. Tris base (Amresco, Catalog No. 0826) • n. Class II A/B3 Biological safety cabinet (ThermoForma Catalog No. HB0053 03) • o. Series II water jacketed CO2 incubator (ThermoForma Model: 3111) • p. Centrifuge (Fisher Scientific Marathon 8 k, Catalog No. 0027-02) • q. Novastar Plate reader (BMG Labtech, Catalog No. 700 0081) • r. Orbital Shaker (Qilinbeier, Catalog No. TS-1) Protocol: […] Growing seeded 96-well plates at 37° C., 5% CO2, till 85% confluence. • 4. Prepare compounds stock solution, using DMSO solve candidate compounds to a concentration of 20 mM. […] Use cell culture medium (in this case, DMEM/F12+10% FBS) to dilute the compounds solution prepared above. Each DMSO serial concentration compound solution is diluted by 20 times with culture medium by adding 5 μl DMSO compound solution to 95 μl culture medium, then mix well by vortex. This promise that the DMSO concentration at that the A431 cell will exposed to will not surpass 0.5%. • 6. […] Each well added 180 μl medium, then add 20 μl medium solution of tested compounds prepared at step 5 to each well. For control group cell, add 20 μl culture medium containing 0.5% pure DMSO. […] Each 96-well plate, we can test 3 compounds with a control cell group. • 7. Put the culture plates back to incubator, culture for 72 hours at 37° C., 5% CO2. • 8. 72 hours later, remove cultures from incubator into sterile work area. • 9. Prepare fixative (50% Trichloroacetic Acid-TCA) by adding reagent grade water to the TCA, fix the cells by gently layering […] of cold TCA solution on top of the growth medium. • 10. Incubate plates for 1 hour at 4° C. and then rinse with water several times to remove TCA, serum proteins, etc. Plates are air dried and stored until use. Bland background optical density is measured in wells incubated with growth medium without cells. • 11. Use 10% acetic acid solution to prepare 0.4% Sulforhodamine B solution. Add 50 μl sulforhodamine B solution to each well of 96-well plates. • 12. […]

The mark [1] stands for this setting: A-431, A431 cells, 72 hours exposure, Sulforhodamine B.

For `CCN(CC)CCN1CCc2[nH]c(/C=C3\C(=O)Nc4c(NC(C)=O)cc(F)cc43)c(C)c2C1=O` [Example 6, N-{3-[5-(2-Diethylamino-ethyl)-3-methyl-4-oxo-4,5,6,7-tetrahydro-1H-pyrrolo[3,2-c]pyridine-2-ylmethylene]-5-fluoro-2-oxo-2,3-dihydro-1H-indol-7-yl}-acetamide], under setting [1], the IC50 (as a rule, the concentration at which inhibition is half-maximal) turned out to be 1380 nM. On to `Cc1c(/C=C2\C(=O)Nc3ccc(F)cc32)[nH]c2c1C(=O)N(CCN1CCOCC1)CC2` [Example 15, 2-(5-Fluoro-2-oxo-1,2-dihydro-indol-3-ylidenemethyl)-3-methyl-5-(2-morpholin-4-yl-ethyl)-1,5,6,7-tetrahydro-pyrrolo[3,2-c]pyridin-4-one], for which, where the note is “A-431, 72 h”, the IC50 was determined as 1350 nM. As to `Cc1c(/C=C2\C(=O)Nc3ccc(NS(C)(=O)=O)cc32)[nH]c2c1C(=O)N(CCN1CCOCC1)CC2` [Example 22, N-{3-[3-Methyl-5-(2-mopholin-4-yl-ethyl)-4-oxo-4,5,6,7-tetrahydro-1H-pyrrolo[3,2-c]pyridine-2-ylmethylene]-2-oxo-2,3-dihydro-1H-indol-5-yl}-methanesulfonamide], under setting [1], the IC50 was found to be 2850 nM. Same read-out and setting: the result for `Cc1c(/C=C2\C(=O)Nc3cccc(-c4cccc(Cl)c4F)c32)[nH]c2c1C(=O)N(CCN1CCOCC1)CC2` [Example 48, 2-[4-(3-Chloro-2-fluoro-phenyl)-2-oxo-1,2-dihydro-indol-3-ylidenemethyl]-3-methyl-5-(2-morpholin-4-yl-ethyl)-1,5,6,7-tetrahydro-pyrrolo[3,2-c]pyridin-4-one] reads 6110 nM; that for `Cc1c(/C=C2\C(=O)Nc3cc(NC(=O)CO)c(F)cc32)[nH]c2c1C(=O)N(CCN1CCCCC1)CC2` [Example 61, N-{5-Fluoro-3-[3-methyl-4-oxo-5-(2-piperidin-1-yl-ethyl)-4,5,6,7-tetrahydro-1H-pyrrolo[3,2-c]pyridin-2-ylmethylene]-2-oxo-2,3-dihydro-1H-indol-6-yl}-2-hydroxy-acetamide], 1250 nM. The same measure, in the same setting: the result for `Cc1c(/C=C2\C(=O)Nc3cccc(-c4c(F)cccc4F)c32)[nH]c2c1C(=O)N(CCN1CCCCC1)CC2` [Example 63, 2-[4-(2,6-Difluoro-phenyl)-2-oxo-1,2-dihydro-indol-3-ylidenemethyl]-3-methyl-5-(2-piperidin-1-yl-ethyl)-1,5,6,7-tetrahydro-pyrrolo[3,2-c]pyridin-4-one] reads 530 nM. With `O=C(CO)Nc1cc2c(cc1F)/C(=C/c1[nH]c3c(c1-c1ccc(F)cc1)C(=O)NCC3)C(=O)N2` [Example 65, N-{5-Fluoro-3-[3-(4-fluoro-phenyl)-4-oxo-4,5,6,7-tetrahydro-1H-pyrrolo[3,2-c]pyridin-2-ylmethylene]-2-oxo-2,3-dihydro-1H-indol-6-yl}-2-hydroxy-acetamide], the IC50 under setting [1] was determined as 3060 nM. Regarding `COCC(=O)Nc1cc2c(cc1F)/C(=C/c1[nH]c3c(c1-c1ccc(F)cc1)C(=O)NCC3)C(=O)N2` [Example 67, N-{5-Fluoro-3-[3-(4-fluoro-phenyl)-4-oxo-4,5,6,7-tetrahydro-1H-pyrrolo[3,2-c]pyridin-2-ylmethylene]-2-oxo-2,3-dihydro-1H-indol-6-yl}-2-methoxy-acetamide], the IC50 under setting [1] worked out at 2030 nM. As for `Cc1c(/C=C2\C(=O)Nc3cccc(CCO)c32)[nH]c2c1C(=O)N(CCN1CCCC1)CC2` [Example 75, 2-[4-(2-Hydroxy-ethyl)-2-oxo-1,2-dihydro-indol-3-ylidenemethyl]-3-methyl-5-(2-pyrrolidin-1-yl-ethyl)-1,5,6,7-tetrahydro-pyrrolo[3,2-c]pyridin-4-one], the IC50 under setting [1] is 1680 nM. The same measure, in the same setting: the result for `Cc1c(/C=C2\C(=O)Nc3c(Br)cc(F)cc32)[nH]c2c1C(=O)N(CCN1CCCCC1)CC2` [Example 90, 2-(7-Bromo-5-fluoro-2-oxo-1,2-dihydro-indol-3-ylidenemethyl)-3-methyl-5-(2-piperidin-1-yl-ethyl)-1,5,6,7-tetrahydro-pyrrolo[3,2-c]pyridin-4-one] reads 270 nM. Still for that read-out and setting: the figure for `Cc1c(/C=C2\C(=O)Nc3ccc(NC=O)cc32)[nH]c2c1C(=O)N(CCN1CCCCC1)CC2` [Example 91, N-{3-[3-Methyl-4-oxo-5-(2-piperidin-1-yl-ethyl)-4,5,6,7-tetrahydro-1H-pyrrolo[3,2-c]pyridin-2-ylmethylene]-2-oxo-2,3-dihydro-1H-indol-5-yl}-formamide] is 120 nM; for `Cc1c(/C=C2\C(=O)Nc3ncc(Br)cc32)[nH]c2c1C(=O)N(CCN1CCCCC1)CC2` [Example 93, 2-(5-Bromo-2-oxo-1,2-dihydro-pyrrolo[2,3-b]pyridin-3-ylidenemethyl)-3-methyl-5-(2-piperidin-1-yl-ethyl)-1,5,6,7-tetrahydro-pyrrolo[3,2-c]pyridin-4-one] it is 1660 nM; for `Cc1c(/C=C2\C(=O)Nc3cc(NCc4ccc(F)cc4)c(F)cc32)[nH]c2c1C(=O)N(CCN1CCCCC1)CC2` [Example 94, 2-[5-Fluoro-6-(4-fluoro-benzylamino)-2-oxo-1,2-dihydro-indol-3-ylidenemethyl]-3-methyl-5-(2-piperidin-1-yl-ethyl)-1,5,6,7-tetrahydro-pyrrolo[3,2-c]pyridin-4-one] it is 340 nM.
